Experimental data reported in ChEMBL document CHEMBL5726876, “NHE3-binding compounds and methods for inhibiting phosphate transport” (2019).

Experiment: Cell-based activity under Prompt Conditions: Cell-based activity under Prompt Conditions. Rat or human NHE3-mediated Na+-dependent H+ antiport was measured using a modification of the pH sensitive dye method originally reported by Paradiso (PNAS USA. 81:7436-7440, 1984). Opossum kidney (OK) cells were obtained from the ATCC and propagated per their instructions. The rat NHE3 gene (GenBank M85300) or the human NHE3 gene (GenBank NM_004174.1) was introduced into OK cells via electroporation, and cells were seeded into 96 well plates and grown overnight. Medium was aspirated from the wells, cells were washed twice with NaCl-HEPES buffer (100 mM NaCl, 50 mM HEPES, 10 mM glucose, 5 mM KCl, 2 mM CaCl2, 1 mM MgCl2, pH 7.4), then incubated for 30 min at room temperature with NH4Cl-HEPES buffer (20 mM NH4Cl, 80 mM NaCl, 50 mM HEPES, 5 mM KCl, 2 mM CaCl2, 1 mM MgCl2, pH 7.4) containing 5 μM bis(acetoxymethyl) 3,3′-(3′,6′-bis(acetoxymethoxy)-5-((acetoxymethoxy)carbonyl)-3-oxo-3H-spiro[isobenzofuran-1,9′-xanthene]-2′,7′-diyl)dipropanoate (BCECF-AM).Cells were washed twice with Ammonium free, Na+-free HEPES (100 mM choline, 50 mM HEPES, 10 mM glucose, 5 mM KCl, 2 mM CaCl2, 1 mM MgCl2, pH 7.4) and incubated in the same buffer for 10 minutes at room temperature to lower intracellular pH. […] Initial rates were plotted as the average 2 or more replicates, and pIC50 values were estimated using GraphPad Prism.

SMILES	IC50 [nM]
CN1Cc2c(Cl)cc(Cl)cc2[C@H](c2cccc(S(=O)(=O)NCCOCCOCCOCCNC(=O)CN(CC(=O)NCCOCCOCCOCCNS(=O)(=O)c3cccc([C@@H]4CN(C)Cc5c(Cl)cc(Cl)cc54)c3)[C@@H]3CCCC[C@H]3N(CC(=O)NCCOCCOCCOCCNS(=O)(=O)c3cccc([C@@H]4CN(C)Cc5c(Cl)cc(Cl)cc54)c3)CC(=O)NCCOCCOCCOCNS(=O)(=O)c3cccc([C@@H]4CN(C)Cc5c(Cl)cc(Cl)cc54)c3)c2)C1	316
CN1Cc2c(Cl)cc(Cl)cc2[C@H](c2cccc(S(=O)(=O)NCCOCCOCCNC(=O)CN(CCOCCOCCOCCNC(=O)c3ccc(-c4ccc(Cl)cc4)cc3)CC(=O)NCCOCCOCCNS(=O)(=O)c3cccc([C@@H]4CN(C)Cc5c(Cl)cc(Cl)cc54)c3)c2)C1	1260
CN1Cc2c(Cl)cc(Cl)cc2[C@H](c2cccc(S(=O)(=O)NCCOCCOCCNC(=O)CCC(CCC(=O)NCCOCCOCCNS(=O)(=O)c3cccc([C@@H]4CN(C)Cc5c(Cl)cc(Cl)cc54)c3)(CCC(=O)NCCOCCOCCNS(=O)(=O)c3cccc([C@@H]4CN(C)Cc5c(Cl)cc(Cl)cc54)c3)NC(=O)Cn3ccnc3)c2)C1	158
CN1Cc2c(Cl)cc(Cl)cc2C(c2cccc(S(=O)(=O)NCCOCCOCCNC(=O)CCC(CCC(=O)NCCOCCOCCNS(=O)(=O)c3cccc([C@@H]4CN(C)Cc5c(Cl)cc(Cl)cc54)c3)(CCC(=O)NCCOCCOCCNS(=O)(=O)c3cccc([C@@H]4CN(C)Cc5c(Cl)cc(Cl)cc54)c3)N(C)C)c2)C1 (stereo partly drawn)	67.6
C/C(=C\c1cc(F)c(Oc2ccc(S(=O)(=O)NCCOCCOCCOCCNC(=O)OCCOCCOCCOC(=O)NCCOCCOCCOCCNS(=O)(=O)c3ccc(Oc4c(F)cc(/C=C(\C)C(=O)N=C(N)N)cc4F)cc3)cc2)c(F)c1)C(=O)N=C(N)N	31.6
CN1Cc2c(Cl)cc(Cl)cc2[C@H](c2cccc(S(=O)(=O)NCCOCCOCCNC(=O)CCC(CCC(=O)NCCOCCOCCNS(=O)(=O)c3cccc([C@@H]4CN(C)Cc5c(Cl)cc(Cl)cc54)c3)(CCC(=O)NCCOCCOCCNS(=O)(=O)c3cccc([C@@H]4CN(C)Cc5c(Cl)cc(Cl)cc54)c3)NC(=O)NCCS(=O)(=O)O)c2)C1	20
CCNC(=O)CN(C)CC(=O)NCCOCCOCCOCCNS(=O)(=O)c1ccc(Oc2c(F)cc(/C=C(\C)C(=O)N=C(N)N)cc2F)cc1	316
CCCCNC(=O)NCCOCCOCCNC(=O)NCCOCCOCCOCCOc1ccc(-c2nc(NC(=N)N)nc3ccc(Cl)cc23)cc1	25.1
CC(C)CCC[C@@H](C)[C@H]1CC[C@H]2[C@@H]3CC=C4C[C@@H](OC(=O)NCCOCCOCCNC(=O)N(CCNC(=O)NCCOCCOCCNS(=O)(=O)c5cccc([C@@H]6CN(C)Cc7c(Cl)cc(Cl)cc76)c5)CCNC(=O)NCCOCCOCCNS(=O)(=O)c5cccc([C@@H]6CN(C)Cc7c(Cl)cc(Cl)cc76)c5)CC[C@]4(C)[C@H]3CC[C@]12C	< 10000
CN1Cc2c(Cl)cc(Cl)cc2[C@H](c2cccc(S(=O)(=O)NCCOCCOCCNC(=O)N(C)CCCN(CCCN(C)C(=O)NCCOCCOCCNS(=O)(=O)c3cccc([C@@H]4CN(C)Cc5c(Cl)cc(Cl)cc54)c3)CCCN(C)C(=O)NCCOCCOCCNS(=O)(=O)c3cccc([C@@H]4CN(C)Cc5c(Cl)cc(Cl)cc54)c3)c2)C1	126
NCCOCCOCCOc1cccc(-c2nc(N=C(N)N)nc3ccc(Cl)cc23)c1	224
CN(C)[C@H]1Cc2c(Cl)cc(Cl)cc2[C@@H]1Oc1ccc(S(=O)(=O)NCCOCCOCCNC(=O)C(C)(C)C(=O)NCCOCCOCCNS(=O)(=O)c2ccc(O[C@H]3c4cc(Cl)cc(Cl)c4C[C@@H]3N(C)C)cc2)cc1	5.01
CN(CCN(CC(=O)O)CC(=O)NCCOCCOCCNC(=O)NCCOCCOCCOCCN1CCN(c2ccc(-c3nc(N=C(N)N)nc4ccc(Cl)cc34)cc2)CC1)CC(=O)O	15.8
CN(C)[C@H]1Cc2c(Cl)cc(Cl)cc2[C@@H]1Oc1ccc(S(=O)(=O)NCCOCCOCCNC(=O)CCC(C)(CCC(=O)NCCOCCOCCNS(=O)(=O)c2ccc(O[C@H]3c4cc(Cl)cc(Cl)c4C[C@@H]3N(C)C)cc2)NC(=O)CCC(=O)O)cc1	10
C/C(=C\c1cc(F)c(Oc2ccc(S(=O)(=O)NCCOCCOCCOCCNCc3ccc(CNCCOCCOCCOCCNS(=O)(=O)c4ccc(Oc5c(F)cc(/C=C(\C)C(=O)N=C(N)N)cc5F)cc4)cc3)cc2)c(F)c1)C(=O)N=C(N)N	200
C/C(=C\c1cc(F)c(Oc2ccc(S(=O)(=O)NCCOCCOCCOCCNC(=O)N(C)CCCCN(C)C(=O)NCCOCCOCCOCCNS(=O)(=O)c3ccc(Oc4c(F)cc(/C=C(\C)C(=O)N=C(N)N)cc4F)cc3)cc2)c(F)c1)C(=O)N=C(N)N	15.8
CCNC(=O)CCOCCOCCOCCOCCOCCC(=O)NCCOCCOCCOCCN1CCN(c2ccc(-c3nc(NC(=N)N)nc4ccc(Cl)cc34)cc2)CC1	20.9
CN(C)[C@H]1Cc2c(Cl)cc(Cl)cc2[C@@H]1Oc1ccc(S(=O)(=O)NCCOCCOCCNC(=O)NCCCCNC(=O)NCCOCCOCCNS(=O)(=O)c2ccc(O[C@H]3c4cc(Cl)cc(Cl)c4C[C@@H]3N(C)C)cc2)cc1	6.31
N=C(N)Nc1nc(-c2cccc(S(=O)(=O)NCCOCCOCCN)c2)c2cc(Cl)ccc2n1	501
CCC(=O)NCCOCCOCCOCCNS(=O)(=O)c1cccc([C@@H]2CN(C)Cc3c(Cl)cc(Cl)cc32)c1	200
CCCCCCCCNC(=O)N(CCNC(=O)NCCOCCOCCNS(=O)(=O)c1cccc([C@@H]2CN(C)Cc3c(Cl)cc(Cl)cc32)c1)CCNC(=O)NCCOCCOCCNS(=O)(=O)c1cccc([C@@H]2CN(C)Cc3c(Cl)cc(Cl)cc32)c1	1580
CN1Cc2c(Cl)cc(Cl)cc2[C@H](c2cccc(S(=O)(=O)NCCOCCOCCNC(=O)CCC(CCC(=O)NCCOCCOCCNS(=O)(=O)c3cccc([C@@H]4CN(C)Cc5c(Cl)cc(Cl)cc54)c3)(CCC(=O)NCCOCCOCCNS(=O)(=O)c3cccc([C@@H]4CN(C)Cc5c(Cl)cc(Cl)cc54)c3)NC(N)=O)c2)C1	316
CN1Cc2c(Cl)cc(Cl)cc2[C@H](c2cccc(S(=O)(=O)NCCOCCOCCOCCN)c2)C1	45.7
CN1Cc2c(Cl)cc(Cl)cc2[C@H](c2cccc(S(=O)(=O)NCCOCCOCCNC(=O)NCCC(CCNC(=O)NCCOCCOCCNS(=O)(=O)c3cccc([C@@H]4CN(C)Cc5c(Cl)cc(Cl)cc54)c3)(CCNC(=O)NCCOCCOCCNS(=O)(=O)c3cccc([C@@H]4CN(C)Cc5c(Cl)cc(Cl)cc54)c3)NC(=O)COCC(=O)O)c2)C1	6.31
CN(C)[C@H]1Cc2ccc(Cl)cc2[C@@H]1Oc1ccc(S(=O)(=O)NCCOCCOCCNC(=O)NCCCCNC(=O)NCCOCCOCCNS(=O)(=O)c2ccc(O[C@H]3c4cc(Cl)ccc4C[C@@H]3N(C)C)cc2)cc1	< 10000
CN1Cc2c(Cl)cc(Cl)cc2[C@H](c2cccc(S(=O)(=O)NCCOCCOCCNC(=O)NCCCC(N)(CCCNC(=O)NCCOCCOCCNS(=O)(=O)c3cccc([C@@H]4CN(C)Cc5c(Cl)cc(Cl)cc54)c3)CCCNC(=O)NCCOCCOCCNS(=O)(=O)c3cccc([C@@H]4CN(C)Cc5c(Cl)cc(Cl)cc54)c3)c2)C1	100
CN(CCCNC(=O)NCCOCCOCCOCCNS(=O)(=O)c1cccc([C@@H]2CN(C)Cc3c(Cl)cc(Cl)cc32)c1)CCCNC(=O)NCCOCCOCCOCCNS(=O)(=O)c1cccc([C@@H]2CN(C)Cc3c(Cl)cc(Cl)cc32)c1	39.8
CN1Cc2c(Cl)cc(Cl)cc2[C@H](c2cccc(S(=O)(=O)NCCOCCOCCNC(=O)CN(CCN(CC(=O)O)CC(=O)NCCOCCOCCNS(=O)(=O)c3cccc([C@@H]4CN(C)Cc5c(Cl)cc(Cl)cc54)c3)CC(=O)O)c2)C1	12.6
